Where two headings read alike, the source gives them in different places.
Legend:
BcX E78Q [1] = target: T1, BcX E78Q (Niallia circulans, UniProt P09850, E106Q); test: NMR titration (1H-15N HSQC) of 15N-labeled BcX E78Q with ligand; assay type: binding, Bacillus circulans
T1 construct: made in house
Method: (§1) Solutions of ^15N-labeled BcX E78Q and BcX E78Q-Y69A (100 µM) were titrated with Dia-X3 and Para-X3. Concentrations of up to 50 mM for Dia-X3 and 8 mM for Para-X3 were used. Samples were prepared separately, and each contained 25 mM sodium acetate buffer (pH 5.8) and 10% D2O for lock. ^1H − ^15N HSQC spectra were obtained on a Bruker HD Avance 850 MHz spectrometer with a cryoprobe, at 20 °C, using 3 mm tubes. In one experiment Para-X3 was reduced in the NMR tube with ascorbic acid to study the effect of reduction in a single sample. The assignment, processing, and analysis of the HSQC spectra were conducted as detailed before (Saberi et al. [2024]).
(§2) Spectra were processed with Topspin (Bruker) and analyzed using CCPN Analysis v.2.4.2 (Vranken et al. [2005]). The weighted average chemical shift perturbations (CSP) for backbone amides (Δδavg) was calculated according to Eq. 1 (modified after Williamson [2013]):1 Δδavg=δH^2+δN/25^2 where δH and δN are the CSPs for ^1H and ^15N nuclei. Titration data were fitted to a 1:1 model Eq. (2), which simplifies to (3) when the ligand concentration [Lt] is much higher than the protein concentration [Pt] (Arai et al. [2012]; Wang et al. [1996]; Williamson [2013]):2 Δδobs=ΔδmaxKD+[Pt]+[Lt]-KD+[Pt]+[Lt]^2-4[Pt][Lt]/2[Pt] 3 Δδobs=[Lt]/KD+[Lt]Δδmax where Δδobs and Δδmax are the observed and maximal change in the chemical shift and KD is the dissociation constant. The error in KD was estimated by manually adjusting KD to higher and lower values and observing the range over which the fit of the CSP data to the model remained within the peak picking error bars of the CSPs.
(§3) The fractional populations of the free and bound states were calculated using the peak height (I) as follows:4 ffree=Ifree/Ifree+Ibound,fbound=Ibound/Ifree+Ibound
(§4) Here, ffree and fbound represent the fractions of the protein in the free and bound states. The uncertainties in the peak heights represent the noise level in the spectra. The dissociation constant KD was determined using:5 KD=ffree.Lfree/fbound
(§5) In this equation, [Lfree] represents the concentration of the free ligand, which was approximated as the total ligand concentration [Ltotal] because the ligand was in large excess relative to the protein. The mean KD value was determined by averaging KD values across the used residues.

BcX E78Q-Y69A [2] = target: T2, BcX E78Q-Y69A (Niallia circulans, UniProt P09850, E106Q/Y97A); test: NMR titration (1H-15N HSQC) of 15N-labeled BcX E78Q-Y69A with ligand; assay type: binding, Bacillus circulans
T2 construct: made in house
Method: as §1, §2, §3, §4, §5

BcX E78Q [3] = target: T1, BcX E78Q; conditions: ref Saberi et al. [2024], cited from earlier work
BcX E78Q-Y69A [4] = target: T2, BcX E78Q-Y69A; conditions: ref Saberi et al. [2024], cited from earlier work
[5] = α-helix region, Para-X3 vs Dia-X3
[6] = α-helix region, global fit of CSP, pH 5.8, 20 °C, read-out: Dissociation constant KD, helix
[7] = secondary binding site, read-out: Dissociation constant KD, SBS

SMILES: CC1(C)CC(O[C@@H]2OC[C@@H](O[C@@H]3OC[C@@H](O[C@@H]4OC[C@@H](O)[C@H](O)[C@H]4O)[C@H](O)[C@H]3O)[C@H](O)[C@H]2O)CC(C)(C)N1[O] [Para-X3, β-D-xylopyranosyl-(1 → 4)-β-D-xylopyranosyl-(1 → 4)-1-TEMPOL-β-D-xylopyranoside]
- Kd (BcX E78Q [1]; active site, CSP of amides, up to 8 mM ligand, NB = no binding, read-out: Dissociation constant KD, active site): > 8 mM
- Binding in the active site cavity (CSP or intensity loss of amide resonances) (BcX E78Q [1]; inside active site cleft, up to 8 mM ligand): absent or very weak
- Affinity for helix region, fold higher than for the diamagnetic equivalent (Dia-X3) (BcX E78Q [1]; [5]): 2.7 fold
- Kd (BcX E78Q [1]; [6]): 1.6 mM
- CSPs or PRE for amides in the inner palm region (active site) (BcX E78Q-Y69A [2]; 8 mM ligand): No significant CSPs or PRE
- Kd (BcX E78Q-Y69A [2]; active site, fit of CSP curves (fast exchange), NB = no binding, read-out: Dissociation constant KD, active site): > 8 mM
- Affinity for helix region, fold higher than for the diamagnetic equivalent (Dia-X3) (BcX E78Q-Y69A [2]; [5]): 1.4 fold
- Kd (BcX E78Q-Y69A [2]; [6]): 2.4 mM

SMILES: OC1OC[C@@H](O[C@@H]2OC[C@@H](O[C@@H]3OC[C@@H](O)[C@H](O)[C@H]3O)[C@H](O)[C@H]2O)[C@H](O)[C@H]1O (some centres unmarked) [X3, xylotriose]
- Kd (BcX E78Q [3]; active site, read-out: Dissociation constant KD, active site): 5.7 mM
- Kd (BcX E78Q [3]; [7]): 23 mM
- Kd (BcX E78Q-Y69A [4]; active site, aglycon subsites, 2:1 model, read-out: Dissociation constant KD2, active site): 24 mM
- Kd (BcX E78Q-Y69A [4]; active site, glycon subsites, 2:1 model, read-out: Dissociation constant KD1, active site): 15 mM
- Kd (BcX E78Q-Y69A [4]; [7]): 22 mM

SMILES: OC1OC[C@@H](O[C@@H]2OC[C@@H](O[C@@H]3OC[C@@H](O[C@@H]4OC[C@@H](O)[C@H](O)[C@H]4O)[C@H](O)[C@H]3O)[C@H](O)[C@H]2O)[C@H](O)[C@H]1O (some centres unmarked) [X4]
- Kd (BcX E78Q [3]; [7]): 2.3 mM
